These results are taken from paper PMC5444710, “Enhancement of radiosensitivity by the novel anticancer quinolone derivative vosaroxin in preclinical glioblastoma models” (Oncotarget, 2017).

Assay [1] has as its system 13 human glioma cell lines and three patient-derived glioblastoma stem cell lines. The assay can be described thus: Cell viability / growth inhibition, whole panel. Type of assay: cell-based. The method, then:
Cells were seeded at a density of 2 × 10^4 cells/mL in 24-well plates. Cells were […] to attach and grow in 5% fetal bovine serum in DMEM for 24 hours. Cells were treated with different doses of radiation or temozolomide and then maintained in the appropriate culture conditions. At the conclusion of the treatment period, cells were trypsinized and resuspended in 1.0 mL of saline; viable cells were counted using the NucleoCounter^TM NC-100 (Chemotec, […], Denmark). All experiments were conducted in triplicate. IC50 values were calculated using GraFit (Erithacus Software Limited, Staines, UK).

Assay [2] has as its system U87MG cells. The assay can be described thus: Clonogenic survival assay. The class given is cell-based, human. Here is the method:
(§1) For clonogenic survival assays, exponentially growing cells (70% confluence) were cultured in regular media and treated with vosaroxin, at the appropriate concentrations, or vehicle (final dimethyl sulfoxide concentration of 0.1%) for 48 hours. Tumor cells were then irradiated at room temperature with increasing doses of radiation (0–6 Gy) using an x-ray linear accelerator (dose rate of 200 cGy/min). Nonirradiated controls were handled identically to the irradiated cells with the exception of the radiation exposure. […] […] Colonies containing more than 50 cells were counted. The plating efficiency was calculated as the number of colonies observed divided by the number of cells plated. The surviving fraction was calculated as the number of colonies formed in the treated dishes compared with the number formed in the control. The survival curves were analyzed using SPSS statistical software (Chicago, IL, USA) by means of a fit of the data by a weighted, stratified, linear regression, according to the linear-quadratic formula: S(D)/S(O) = exp-(αD + βD2). The cell survival enhancement ratio was calculated as the ratio of the mean inactivation dose under control conditions divided by the mean inactivation dose after treatment as previously described.

Assay [3] relates to A172 cells. Nature of the assay: Clonogenic survival assay. Type of assay: cell-based, human. Here is the method:
as §1

Assay [4] deals with U251 cells. The assay can be described thus: Clonogenic survival assay. Type of assay: cell-based, human. The method, then: as §1
The test system of assay [5] is T98G cells. Nature of the assay: Clonogenic survival assay. Type of assay: cell-based, human. Here is the method: as §1
Assay [6] deals with CSCs-5 patient-derived glioblastoma stem cell line. The assay can be described thus: Inhibition of proliferation (cell viability). Type of assay: cell-based. To be noted: Homo sapiens. Here is the method: (§2) Thirteen human glioma cell lines (U251, U373, SNB19, U118, U138, U87MG, A172, LN229, LN19, SW1783, T98G, SF-268, and D54) were cultured at 37°C in 5% CO2 and were maintained in Dulbecco’s modified Eagle medium (DMEM) containing 10% (v/v) fetal bovine serum, 4 mM glutamine, 100 IU/mL penicillin, 100 μg/mL streptomycin, and 1% nonessential amino acid (Invitrogen Life Technologies, Inc., Rockville, MD, USA). To minimize the risk of working with misidentified and/or contaminated cell lines, the cells used in studies reported here were stocked at very low passages after initial receipt from the vendor to reduce the possibility of contaminated cell line stocks and used at < 20 subcultures. Periodically, DNA profiling by GenePrint® 10 System (Promega Corporation, Madison, WI, USA) was carried out to authenticate cell cultures. Luciferase-transfected U251 cells were kindly provided by Jari E. Heikkila, department of Biochemistry and Pharmacy, Abo Akademi University, Turku, Finland. […] These non-commercially available, patient-derived cells were analyzed using short tandem repeat profiles. The expression of MGMT, p53, and PTEN was detected in western blots with antibodies from Santa Cruz against MGMT (sc166528), wt p53 (sc-100), total p53 (sc-126), and PTEN (sc-7974).
(§3) Cells were seeded at a density of 2 × 10^4 cells/mL in 24-well plates. […] At the conclusion of the treatment period, cells were trypsinized and resuspended in 1.0 mL of saline; viable cells were counted using the NucleoCounter™ NC-100 (Chemotec, Cydevang, Denmark). […] IC50 values were calculated using GraFit (Erithacus Software Limited, Staines, UK).

The subject of assay [7] is CSCs-7 patient-derived glioblastoma stem cell line. The assay can be described thus: Inhibition of proliferation (cell viability). Type of assay: cell-based. To be noted: Homo sapiens. Here is the method:
as §2, §3

The subject of assay [8] is BT12M patient-derived glioblastoma stem cell line. The assay can be described thus: Inhibition of proliferation (cell viability). Type of assay: cell-based. To be noted: Homo sapiens. The method, then:
as §2, §3

[9] abbreviates: concentration equal to IC20, analyzed at 21 days of culture.
[10] abbreviates: irradiated 2, 4, 6 Gy 48 hours after drug exposure, calculated at a surviving fraction of 0.10.

Molecules are shown by their SMILES.

Turning to `CN[C@H]1CN(c2ccc3c(=O)c(C(=O)O)cn(-c4nccs4)c3n2)C[C@@H]1OC` [vosaroxin], the IC20 in assay [1] (Glioma cell, glioma cells used in clonogenic studies, read-out: IC20 values in growth inhibition assays, range) fell in the range of 0.01 to 0.1 µM. Also, the IC50 in assay [1] (read-out: IC50 values, range over all cell lines tested) is 0.0128 to 0.261 µM; in assay [6], 0.0854 ± 0.0078 µM; in assay [7], 0.125 ± 0.0154 µM; in assay [8], 0.0443 ± 0.0055 µM. The “surviving fraction, vosaroxin alone” value in assay [2] (setting [9]) is given as 0.77 ± 0.18; in assay [3] (setting [9]), 0.87 ± 0.18; in assay [4] (setting [9]), 0.80 ± 0.064; in assay [5] (setting [9]) it was 0.84 ± 0.036. For the same compound, the dose enhancement factor in assay [2] (setting [10]) is 1.55; in assay [3] (setting [10]), 1.24; in assay [4] (setting [10]) it was 1.33; in assay [5] (setting [10]), 1.40.

One may read the IC20 as the concentration needed for an effect of 20%. For orientation: IC50 means the midpoint of a concentration-inhibition curve.
